{
  "source": "ChEMBL document CHEMBL1142650",
  "about": "“Novel transient receptor potential vanilloid 1 receptor antagonists for the treatment of pain: structure-activity relationships for ureas with quinoline, isoquinoline, quinazoline, phthalazine, quinoxaline, and cinnoline moieties” (J Med Chem, 2005)",
  "key": {"[1]": {"target": "Transient receptor potential cation channel subfamily V member 1 (Homo sapiens, UniProt Q8NER1)", "sequence (Q8NER1 whole entry)": "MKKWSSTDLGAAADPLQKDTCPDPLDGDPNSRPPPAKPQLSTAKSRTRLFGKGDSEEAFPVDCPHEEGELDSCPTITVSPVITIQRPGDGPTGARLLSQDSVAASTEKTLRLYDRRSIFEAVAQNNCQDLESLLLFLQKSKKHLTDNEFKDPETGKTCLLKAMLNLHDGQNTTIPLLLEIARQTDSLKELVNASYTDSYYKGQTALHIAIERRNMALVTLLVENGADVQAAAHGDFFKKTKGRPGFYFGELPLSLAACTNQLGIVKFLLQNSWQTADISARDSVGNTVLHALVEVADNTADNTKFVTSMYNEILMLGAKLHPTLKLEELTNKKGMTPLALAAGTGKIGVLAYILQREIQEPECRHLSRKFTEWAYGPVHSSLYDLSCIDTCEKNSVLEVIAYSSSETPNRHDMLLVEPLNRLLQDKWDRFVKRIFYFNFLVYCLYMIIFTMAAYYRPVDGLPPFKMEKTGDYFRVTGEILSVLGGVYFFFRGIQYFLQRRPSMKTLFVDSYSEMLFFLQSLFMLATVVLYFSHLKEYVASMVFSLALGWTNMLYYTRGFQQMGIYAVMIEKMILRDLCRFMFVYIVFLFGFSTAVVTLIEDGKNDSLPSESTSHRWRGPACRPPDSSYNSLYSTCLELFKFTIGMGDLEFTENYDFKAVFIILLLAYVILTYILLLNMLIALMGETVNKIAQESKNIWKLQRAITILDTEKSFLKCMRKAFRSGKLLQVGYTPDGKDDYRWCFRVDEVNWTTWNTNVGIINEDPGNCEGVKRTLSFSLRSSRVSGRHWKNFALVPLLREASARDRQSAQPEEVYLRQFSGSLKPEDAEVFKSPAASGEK", "experiment": "Inhibition of binding to human vanilloid receptor subtype VR1"}, "[2]": {"target": "Transient receptor potential cation channel subfamily V member 1 (Rattus norvegicus, UniProt O35433)", "sequence (O35433 whole entry)": "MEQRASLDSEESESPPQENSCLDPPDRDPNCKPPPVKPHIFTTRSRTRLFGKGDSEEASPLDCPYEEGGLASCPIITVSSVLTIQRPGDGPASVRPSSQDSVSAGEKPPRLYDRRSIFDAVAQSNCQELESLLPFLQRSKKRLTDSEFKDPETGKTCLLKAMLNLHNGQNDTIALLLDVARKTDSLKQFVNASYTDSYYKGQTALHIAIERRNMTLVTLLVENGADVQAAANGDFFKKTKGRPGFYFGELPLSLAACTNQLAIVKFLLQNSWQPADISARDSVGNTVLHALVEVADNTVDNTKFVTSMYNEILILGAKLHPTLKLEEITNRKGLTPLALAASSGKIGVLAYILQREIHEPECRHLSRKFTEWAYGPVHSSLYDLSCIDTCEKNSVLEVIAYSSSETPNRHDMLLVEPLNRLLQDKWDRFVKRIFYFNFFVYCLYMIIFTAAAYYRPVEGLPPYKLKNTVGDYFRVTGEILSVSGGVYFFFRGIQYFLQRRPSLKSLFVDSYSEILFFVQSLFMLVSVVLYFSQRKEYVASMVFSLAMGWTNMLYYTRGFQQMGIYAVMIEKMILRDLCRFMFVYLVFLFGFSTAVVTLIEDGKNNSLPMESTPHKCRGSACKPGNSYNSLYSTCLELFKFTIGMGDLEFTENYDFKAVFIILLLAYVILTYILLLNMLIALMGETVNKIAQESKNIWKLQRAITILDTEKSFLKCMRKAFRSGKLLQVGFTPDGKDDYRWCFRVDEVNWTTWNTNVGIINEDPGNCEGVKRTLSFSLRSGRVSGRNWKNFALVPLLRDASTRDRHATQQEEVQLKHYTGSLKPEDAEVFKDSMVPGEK", "experiment": "Inhibition of binding to rat transient receptor potential vanilloid 1 receptor"}, "[3]": {"experiment": "Plasma protein binding in human", "assay_type": "ADME, cell-free", "settings": "read-out: Plasma protein binding (converted)"}, "[4]": {"experiment": "Half life in rat", "assay_type": "ADME", "settings": "in vivo"}, "[5]": {"experiment": "Volume of distribution in rat", "assay_type": "ADME, organism-based", "settings": "in vivo, read-out: Vbeta"}, "[6]": {"experiment": "Plasma protein binding in rat", "assay_type": "ADME, cell-free", "settings": "read-out: Plasma protein binding (converted)"}, "[7]": {"experiment": "Maximum concentration in rat", "assay_type": "ADME, organism-based", "settings": "in vivo"}, "Rattus norvegicus": {"species": "Rattus norvegicus", "experiment": "Concentration required to reduce thermal hyperalgesia in the complete Freund's adjuvant (CFA) model of chronic inflammatory pain", "assay_type": "functional"}},
  "data": [
    {"smiles": "CSc1cccc(NC(=O)Nc2cccc3ccc(O)cc23)c1", "values": [
      {"measurement": "IC50", "setting": "[1]", "result": 22, "unit": "nM"}
    ]},
    {"smiles": "O=C(NCc1ccc(C(F)(F)F)cc1)Nc1cccc2cnccc12", "values": [
      {"measurement": "IC50", "setting": "[2]", "result": 24, "unit": "nM"},
      {"measurement": "fraction unbound", "setting": "[3]", "result": 0.02},
      {"measurement": "half-life", "setting": "[4]", "result": 36, "unit": "min"},
      {"measurement": "Vd", "setting": "[5]", "result": 0.6, "unit": "L/kg"},
      {"measurement": "fraction unbound", "setting": "[6]", "result": 0.029},
      {"measurement": "Cmax", "setting": "[7]", "result": 3000, "unit": "ng/mL"},
      {"measurement": "IC50", "setting": "[1]", "result": 4, "unit": "nM"},
      {"measurement": "ED50", "setting": "Rattus norvegicus", "result": 30, "unit": "µmol/kg"}
    ]},
    {"smiles": "O=C(NCc1cccc(C(F)(F)F)c1)Nc1cccc2cnccc12", "values": [
      {"measurement": "IC50", "setting": "[1]", "result": 51, "unit": "nM"}
    ]},
    {"smiles": "O=C(NCCc1cccc(C(F)(F)F)c1)Nc1cccc2cnccc12", "values": [
      {"measurement": "IC50", "setting": "[1]", "result": 20, "unit": "nM"}
    ]}
  ]
}
